Results published in patent US11517591B2, “Immunogenic peptides specific to BCMA and TACI antigens” (Dana-Farber Cancer Institute, Inc., priority 2017, dated 2022).

Key:
HLA-A2 molecule = biological target: T1, HLA-A2 molecule (Homo sapiens, UniProt P04439, D140Y/D185E/D98H/E176V/E277Q/G131W/G231S/I119V/I121R/I166T/I218V/L300P/L318F/N151K/N90K/P208A/P217A/Q86G/Q94H/R138H/R169H/T345S); test: Peptide/HLA-A2 complex stability on peptide-loaded T2 cells post-brefeldin A; format: binding
T1 construct: endogenous in cells; host or cells: T2 cell line (human B and T cell hybrid), provided by Dr. J. Molldrem
Method: The native and heteroclitic BCMA and TACI peptides were examined for HLA-A2 binding stability using the T2 cell line. T2 cells were pulsed with the respective peptide. After overnight incubation, the cells were washed to remove unbound peptide; they were evaluated for binding affinity as shown above and stability as following. The cells were incubated with 10 μg/ml Brefeldin A (Sigma) at 37° C. and 5% CO2 for 1 hour to block cell surface expression of newly synthesized HLA-A2 molecules. Peptide/HLA-A2 binding stability was evaluated at 0, 2, 4, 6 and 18 hours post-Brefeldin A treatment. Following the incubation period, the cells were harvested, washed, stained with mouse anti-human HLA-A2-FITC mAb and analyzed by flow cytometry. […] Therefore, the Heteroclitic #4 BCMA72-80 (YLMFLLRKI (SEQ ID NO: 13)) and Heteroclitic #3. TACI154-162 (YLSADQVAL (SEQ ID NO: 16) peptides were selected for further evaluation of their immunogenic potential to generate MM-specific cytotoxic T cells (CTLs).
(§1) T2 cells were pulsed overnight with various doses of peptide plus β2-microglobulin (3 μg/ml) (Sigma, St Louis, Mo.). Following overnight incubation, the cells were stained with HLA-A2-PE mAb and analyzed using a FACSCanto™ flow cytometer (BD). Peptide/HLA-A2 complex stability was measured on peptide loaded T2 cells at 0, 2, 4, 6 and 14 hours post-brefeldin A treatment by staining with HLA-A2-PE mAb and flow cytometric analysis.
as §1, with “concentrations” for “doses”, “The stability of peptide/HLA-A2” for “Peptide/HLA-A2”, “binding” for “stability”, “treatment followed” for “treatment”

[1] = test system: peripheral blood mononuclear cells from HLA-A2+ normal donors; test: Generation and phenotypic characterization of BCMA-CTL stimulated with free or nanoparticle-encapsulated BCMA peptide; format: cell-based, human
Method: BCMA peptide-specific CTL (BCMA-CTL) were generated ex vivo by repeated stimulation of peripheral blood mononuclear cells isolated from HLA-A2^+ normal donors' with (1) HLA-A2 specific BCMA immunogenic peptide (50 ug/ml), (2) a blank nanoparticle (PLGA or liposome) without peptide, or (3) the BCMA peptide (50 ug/ml) encapsulated nanoparticle (PLGA/peptide or liposome/peptide). PBMC were cultured in DMEM medium supplemented with 10% human AB serum (BioWhittaker) and pulsed weekly with the appropriate BCMA peptide for a total of 4 or 5 cycles. IL-2 (50 U/ml) was added to the T cell cultures two days after the second stimulation.
BCMA peptide-specific CD8^+ CTL were evaluated for Naïve: Memory cell development and expression of CD28 co-stimulatory molecule by flow cytometry. In addition, BCMA peptide-specific CD8^+ CTL were assessed within the cultures by staining with BCMA peptide-specific Tetramer-PE. Following tetramer staining at 37° C. for 30 min, cells were washed and stained with CD8-FITC and CD28-APC mAbs. After staining, cells were washed, fixed in 2% paraformaldehyde, acquired using a LSRII Fortessa™ flow cytometer, and analyzed using FACS DIVA™ v8.0 (BD) or FlowJo v10.0.7 (Tree star, Ashland, Oreg.) software. BCMA-CTL were analyzed for the presence\frequency of specific memory (central memory, effector memory)/non-memory populations within the total gated CD3^+CD8^+ T cell population.

[2] = after the 5-cycle of peptide stimulation

With “YLMFLLRKI [heteroclitic BCMA72-80, heteroclitic BCMA peptide]” the “HLA-A2 binding stability, heteroclitic vs native peptide” value (HLA-A2 molecule; 50 ug/ml, 0, 2, 4, 6 and 18 hours post-Brefeldin A, Example 4, FIGS. 6 and 7) was “significant improvement in their HLA-A2 affinity at all the time points evaluated”, the “HLA-A2 affinity and stability at each time point, compared with HIV-Gag77-85 positive control” value (HLA-A2 molecule; Example 12) was “highest level of HLA-A2 affinity and stability” and the “HLA-A2 stability of heteroclitic vs native BCMA peptide” value (HLA-A2 molecule; Example 12) was “further enhanced”. The “total CD45RO+ memory CTL” value ([1]; 3′ stimulation) was 15.3%, the “total CD45RO+ memory CTL” value ([1]; 4′ stimulation) was 19.5% and the “total CD45RO+ memory CTL” value ([1]; 5′ stimulation) was 79.0%. For the same sequence, the “central memory (CM) CD8+ T cell subset” value ([1]; after 1 cycle of stimulation) was 2.9%, the “effector memory (EM) CD8+ T cell subset” value ([1]; after 1 cycle of stimulation) was 5.7% and the “central memory (CM) CD8+ T cell subset” value ([1]; after 3 cycles of stimulation) was 12.4%. The “effector memory (EM) CD8+ T cell subset” value ([1]; after 3 cycles of stimulation) was 11.0%, the “central memory (CM) CD8+ T cell subset” value [1, 2] was 3.5% and the “effector memory (EM) CD8+ T cell subset” value [1, 2] was 95.4%.
